Measurements: patent publication US9416129B2, “Tricyclic substituted thiadiazine dioxide compounds as BACE inhibitors, compositions and their use” (Merck Sharp & Dohme Corp., priority 2012, dated 2016)

How the values were obtained:
[1] = molecular target: soluble human BACE1 catalytic domain (Homo sapiens (Human), UniProt P56817); test: BACE1 HTRF FRET assay; format: biochemical; conditions: for Ki: Ki calculated from IC50 using the Cheng-Prusoff equation
From the text: Na^+-Acetate pH 5.0; 1% Brij-35; Glycerol; Dimethyl Sulfoxide (DMSO); Recombinant human soluble BACE1 catalytic domain (>95% pure); APP Swedish mutant peptide substrate (QSY7-APP^swe-Eu): QSY7-[…]-Europium-amide.
A homogeneous time-resolved FRET assay can be used to determine IC50 values for inhibitors of the soluble human BACE1 catalytic domain. This assay monitors the increase of 620 nm fluorescence that resulted from BACE1 cleavage of an APPswedish APP^swe mutant peptide FRET substrate (QSY7-[…]-Europium-amide). This substrate contains an N-terminal QSY7 moiety that serves as a quencher of the C-terminal Europium fluorophore (620 nm Em). In the absence of enzyme activity, 620 nm fluorescence is low in the assay and increased linearly over 3 hours in the presence of uninhibited BACE1 enzyme Inhibition of BACE1 cleavage of the QSY7-APP^swe-Eu substrate by inhibitors is manifested as a suppression of 620 nm fluorescence.
Varying concentrations of inhibitors at 3× the final desired concentration in a volume of 10 ul are preincubated with purified human BACE1 catalytic domain (3 nM in 10 μl) for 30 minutes at 30° C. in reaction buffer containing 20 mM Na-Acetate pH 5.0, 10% glycerol, 0.1% Brij-35 and 7.5% DSMO. Reactions are initiated by addition of 10 μl of 600 nM QSY7-APP^swe-Eu substrate (200 nM final) to give a final reaction volume of […] in a 384 well Nunc HTRF plate. The reactions are incubated at 30° C. for 1.5 hours. The 620 nm fluorescence is then read on a Rubystar HTRF plate reader (BMG Labtechnologies) using a 50 millisecond delay followed by a 400 millisecond acquisition time window. Inhibitor IC50 values are derived from non-linear regression analysis of concentration response curves.

human autoBACE-2 = human autoBACE-2 (Homo sapiens (Human), UniProt Q9Y5Z0); test: BACE-2 assay (BACE-HTRF, time-resolved endpoint proteolysis); format: biochemical; conditions: Ki calculated from IC50 using the Cheng-Prusoff equation; read-out: BACE2 Ki
Chain of human autoBACE-2 (Q9Y5Z0 63-473 limits assumed): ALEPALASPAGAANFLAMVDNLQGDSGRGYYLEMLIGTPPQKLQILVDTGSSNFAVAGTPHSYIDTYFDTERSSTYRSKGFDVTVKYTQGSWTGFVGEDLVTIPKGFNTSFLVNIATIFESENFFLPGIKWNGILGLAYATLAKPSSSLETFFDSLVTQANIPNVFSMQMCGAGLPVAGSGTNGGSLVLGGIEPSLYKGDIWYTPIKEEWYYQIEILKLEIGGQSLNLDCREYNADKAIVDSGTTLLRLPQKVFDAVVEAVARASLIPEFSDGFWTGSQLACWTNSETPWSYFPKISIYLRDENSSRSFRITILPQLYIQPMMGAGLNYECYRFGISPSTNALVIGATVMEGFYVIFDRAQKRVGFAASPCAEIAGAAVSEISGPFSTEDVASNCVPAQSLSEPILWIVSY
Protocol: Inhibitor IC50s at purified human autoBACE-2 are determined in a time-resolved endpoint proteolysis assay that measures hydrolysis of the QSY7-[…]-Eu-amide FRET peptide substrate (BACE-HTRF assay). […] DMSO is present at 5% final concentration in the assay. Following laser excitation of sample wells at 320 nm, the fluorescence signal at 620 nm is collected for 400 ms following a 50 μs delay on a RUBYstar HTRF plate reader (BMG Labtechnologies). Raw RFU data is normalized to maximum (1.0 nM BACE/DMSO) and minimum (no enzyme/DMSO) RFU values. […] The Ki values are calculated from the IC50 using the Cheng-Prusoff equation.

human P-glycoprotein = human P-glycoprotein (Homo sapiens (Human), UniProt P08183); test: Pgp Mdr1 efflux ratio; format: in vitro ADME; conditions: for Pgp Mdr1 ER: efflux ratio, human P-glycoprotein
Chain of human P-glycoprotein (P08183 whole entry): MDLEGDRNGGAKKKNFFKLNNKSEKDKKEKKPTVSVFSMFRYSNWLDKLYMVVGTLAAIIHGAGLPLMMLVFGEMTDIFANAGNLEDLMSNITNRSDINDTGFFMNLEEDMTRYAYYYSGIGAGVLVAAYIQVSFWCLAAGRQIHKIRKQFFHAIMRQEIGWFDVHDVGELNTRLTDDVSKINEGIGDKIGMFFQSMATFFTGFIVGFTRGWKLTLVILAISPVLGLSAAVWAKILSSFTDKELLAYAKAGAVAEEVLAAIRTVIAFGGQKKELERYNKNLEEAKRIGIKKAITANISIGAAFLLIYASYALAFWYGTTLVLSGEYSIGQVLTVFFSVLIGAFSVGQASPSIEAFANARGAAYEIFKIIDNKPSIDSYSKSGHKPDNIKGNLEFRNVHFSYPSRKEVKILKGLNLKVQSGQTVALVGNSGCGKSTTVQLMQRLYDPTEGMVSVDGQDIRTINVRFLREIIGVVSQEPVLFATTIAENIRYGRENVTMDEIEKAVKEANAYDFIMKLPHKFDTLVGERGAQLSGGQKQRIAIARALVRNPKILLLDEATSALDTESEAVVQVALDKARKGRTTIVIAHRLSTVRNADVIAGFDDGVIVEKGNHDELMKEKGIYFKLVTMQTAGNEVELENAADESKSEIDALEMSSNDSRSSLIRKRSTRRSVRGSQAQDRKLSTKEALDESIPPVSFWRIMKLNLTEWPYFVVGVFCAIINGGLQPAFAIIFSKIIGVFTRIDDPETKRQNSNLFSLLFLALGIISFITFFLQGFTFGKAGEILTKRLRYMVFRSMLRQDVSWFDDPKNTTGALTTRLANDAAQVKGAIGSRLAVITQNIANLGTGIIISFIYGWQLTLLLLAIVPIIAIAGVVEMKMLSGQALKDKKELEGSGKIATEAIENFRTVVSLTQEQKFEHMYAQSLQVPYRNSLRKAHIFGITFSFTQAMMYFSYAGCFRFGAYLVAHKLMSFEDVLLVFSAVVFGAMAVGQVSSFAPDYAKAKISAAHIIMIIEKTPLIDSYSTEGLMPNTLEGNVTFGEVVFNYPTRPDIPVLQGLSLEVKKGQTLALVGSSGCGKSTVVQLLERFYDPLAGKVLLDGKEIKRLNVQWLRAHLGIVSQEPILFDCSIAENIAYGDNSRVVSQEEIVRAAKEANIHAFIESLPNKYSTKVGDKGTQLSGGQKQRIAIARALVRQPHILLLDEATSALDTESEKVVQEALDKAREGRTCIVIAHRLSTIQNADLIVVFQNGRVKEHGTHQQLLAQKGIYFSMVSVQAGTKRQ

Cathepsin-D = Cathepsin-D (Homo sapiens (Human), UniProt P07339); test: Cathepsin-D inhibition (selectivity); format: biochemical
Chain of Cathepsin-D (P07339 65-412, species assumed): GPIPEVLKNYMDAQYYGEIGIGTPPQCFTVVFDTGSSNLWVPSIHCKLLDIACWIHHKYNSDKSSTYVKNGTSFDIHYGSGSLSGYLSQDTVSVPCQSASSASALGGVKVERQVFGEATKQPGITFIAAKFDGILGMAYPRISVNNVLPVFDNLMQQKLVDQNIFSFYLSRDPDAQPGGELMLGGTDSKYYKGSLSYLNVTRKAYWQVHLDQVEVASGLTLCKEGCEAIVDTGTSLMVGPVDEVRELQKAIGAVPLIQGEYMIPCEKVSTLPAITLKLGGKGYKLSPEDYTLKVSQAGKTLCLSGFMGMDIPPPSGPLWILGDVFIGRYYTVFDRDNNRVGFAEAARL

Chain of soluble human BACE1 catalytic domain (P56817 75-416): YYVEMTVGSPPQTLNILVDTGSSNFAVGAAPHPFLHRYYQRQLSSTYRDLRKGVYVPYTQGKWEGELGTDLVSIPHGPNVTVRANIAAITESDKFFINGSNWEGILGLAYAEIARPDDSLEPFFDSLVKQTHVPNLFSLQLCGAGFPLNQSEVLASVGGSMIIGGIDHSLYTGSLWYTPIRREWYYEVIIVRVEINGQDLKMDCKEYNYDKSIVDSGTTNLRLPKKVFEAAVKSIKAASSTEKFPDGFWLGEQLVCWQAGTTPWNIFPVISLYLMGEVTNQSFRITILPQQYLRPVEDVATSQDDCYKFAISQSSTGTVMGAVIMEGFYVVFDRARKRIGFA

Row | Ki [1] [nM] | Ki (human autoBACE-2) [nM] | Pgp Mdr1 ER (human P-glycoprotein) | BACE potency (in words) [1] | Pgp susceptibility (in words) (human P-glycoprotein) | Ki (Cathepsin-D; read-out: Cath-D Ki) [nM] | Cathepsin-D selectivity (in words) (Cathepsin-D; selectivity for BACE over Cathepsin-D) | Compound
1 | 12.5 | 4.8 | 1.1 |  |  |  |  | CN1C(=N)N[C@](C)(c2sc(-c3cc(F)cc(-c4cnco4)c3)cc2F)CS1(=O)=O [Example 25]
2 | 10 | 16 | 0.78 | good BACE potency | low Pgp susceptibility | 6970 | good Cathepsin-D selectivity | CN1C(=N)N[C@](C)(c2sc3c(-c4ccc(-n5cccn5)nc4)nccc3c2Cl)CS1(=O)=O [Example 80]
3 | 3.9 | 0.34 | 1.7 |  |  |  |  | CN1C(=N)N[C@](C)(c2sc(-c3cccc(-c4ncon4)c3)cc2F)CS1(=O)=O [Example 47]
4 | 29.1 | 3.6 | 1.7 |  |  |  |  | Cc1noc(-c2cccc(-c3cc(F)c([C@]4(C)CS(=O)(=O)N(C)C(=N)N4)s3)c2)n1 [Example 38]
5 | 13.4 | 0.35 | 0.34 |  |  |  |  | Cc1nc(-c2cccc(-c3cc(Cl)c([C@]4(C)CS(=O)(=O)N(C)C(=N)N4)s3)c2)no1 [Example 41]
6 | 4.7 | 1.4 | 0.49 |  |  |  |  | CN1C(=N)N[C@](C)(c2sc(-c3cccc(-c4ncco4)c3)cc2Cl)CS1(=O)=O [Example 6]
7 | 203 | 2.2 | 1.0 |  |  |  |  | CN1C(=N)N[C@](C)(c2sc(-c3cccc(-c4nnc(C5CC5)o4)c3)cc2Cl)CS1(=O)=O [Example 17]
8 | 1.7 | 2 | 1.3 |  |  |  |  | CN1C(=N)N[C@](C)(c2sc(-c3cccc(-c4cnco4)c3)cc2Cl)CS1(=O)=O [Example 11]
9 | 177 | 4.2 | 0.53 |  |  |  |  | CN1C(=N)N[C@](C)(c2sc(-c3cccc(-c4nnc(C5CC5)o4)c3)cc2F)CS1(=O)=O [Example 18]
10 | 8.7 | 0.73 | 1.7 |  |  |  |  | CN1C(=N)N[C@](C)(c2sc(-c3cccc(-c4ncco4)c3)cc2F)CS1(=O)=O [Example 7]
11 | 3.3 | 3.7 | 1.8 |  |  |  |  | CN1C(=N)N[C@](C)(c2sc(-c3cccc(-c4cnco4)c3)cc2F)CS1(=O)=O [Example 12]
12 | 25.4 | 1.1 | 1.2 |  |  |  |  | Cc1nc(-c2cccc(-c3cc(F)c([C@]4(C)CS(=O)(=O)N(C)C(=N)N4)s3)c2)no1 [Example 42]
13 | 6.9 | 3.5 | 1.6 |  |  |  |  | CN1C(=N)N[C@](C)(c2sc(-c3cccc(-c4ccno4)c3)cc2F)CS1(=O)=O [Example 14]
14 | 11.4 | 4.8 | 0.90 |  |  |  |  | CN1C(=N)N[C@](C)(c2sc(-c3cc(F)cc(-c4cnco4)c3)cc2Cl)CS1(=O)=O [Example 23]
